Laboratory results as given in article PMC8002072, “A Novel Vasoactive Peptide “PG1” from Buffalo Ice-Cream Protects from Angiotensin-Evoked High Blood Pressure” (Antioxidants, 2021).
Where a SMILES comes first, the peptide text is derived from it.

How the values were obtained:
[1] = system: pancreatin (from the porcine pancreas), chymotrypsin (from bovine pancreas); test: Enzymatic stability with digestive enzymes; assay type: in vitro ADME; details: chymotrypsin and bile salts, peptide/enzyme 1:10 or 1:100 w/w, 37 °C, 180 min, LC-MS/MS
Protocol: (§1) The peptide (5 µM) was incubated for 3 h and monitored by mass spectrometry experiments. On the other hand, the assessment of PG1 enzymatic stability was performed by treating the peptide with digestive enzymes. In detail, pentapeptide was incubated with pancreatin (from the porcine pancreas), chymotrypsin (from bovine pancreas) and bile salts. Digestive reactions were carried out at 37 °C for 180 min with 1:10 or 1:100 peptide/enzyme ratio, w/w. Finally, the mixture was centrifuged at 4000× g at 4 °C for 10 min, and PG1 peptide was collected at time 0 and at the end of the experiment and then analyzed by LC-MS/MS for the mass balance calculation.

[2] = Serum concentration of PG1 in treated mice; assay type: in vivo; details: mouse, mice treated with PG1 (10 mg/Kg daily), ACN/0.1% TFA extraction, LC-MS/MS, LOQ 8.6 pM, mean ± SEM, read-out: serum concentration of pentapeptide
Protocol: For the determination of serum concentration of pentapeptide in mice treated with PG1, blood samples were taken from the ventricle, performing a slow withdrawal to prevent the heart collapsing, to obtain a large quantity of high-quality blood. After collection, samples were rapidly centrifuged at 800 g to separate and collect serum. Extraction was conducted with ice-cold ACN plus 0.1% TFA (100 µL serum + 200 µL ACN). Samples were vortexed for 30 s and then centrifuged for 5 min at 10,000 rpm (Eppendorf Centrifuge model 5425). The supernatant was dried under nitrogen steam and reconstituted in 50:50 H2O/ACN. Calibration curve prepared by serial dilution of synthetic peptide solubilized in water in over the range 200–10 pM (y = 0.0167x + 0.7127, R^2 = 0.9998, LOD = 2.8 pM, LOQ = 8.6 pM).

[3] = Microsomal stability assay; assay type: in vitro ADME; details: human microsomes 20 mg/mL stock (5 μL in 200 µL), PG1 1 mM stock (2 μL), 100 mM phosphate buffer pH 7.4, 5 min pre-incubation, NADPH, 37 °C, 60 min, LC-MS/MS; mean ± SEM; read-out: parent compound turnover percentage
Protocol: 2 μL of PG1 peptide (1 mM) were incubated with 183 µL of 100 mM phosphate buffer (pH 7.4), and 5 μL of 20 mg/mL human microsomes (Thermo Fisher Scientific, Bremen, Germany). After pre-incubation in a water bath for 5 min, the mixture was added with 10 μL of the 20 mM NADPH at further incubated at 37 °C for 60 min. The reaction was stopped with ice-cold methanol, centrifuged at 10,000 rpm at room temperature for 5 min and analyzed by LC-MS/MS. Three controls were used: T0 reference was obtained stopping the microsomal reaction by addition of the organic solvent immediately after incubation with microsomes. As positive and negative controls were used testosterone and PG1 solution incubated without NADPH. The extent of metabolism is expressed as a percentage of the parent compound turnover using the following equation:(2) % Parent compound turnover = 100 − [concentration at 60 min/concentration at 0 min × 100]

[4] = Caco-2 cell monolayers permeation experiments; assay type: in vitro ADME, human; details: human; Caco-2 monolayers, HBSS, 180 min, UHPLC-MS/MS; read-out: efflux ratio (Papp,b/a/Papp,a/b)
Protocol: (§2) The colorectal adenocarcinoma (Caco-2) cell line was purchased from ATCC (Rockville, MD, USA). Cells were cultured in DMEM high glucose (4.5 g/L) with 2 mM L-glutamine and 10% (v/v) heat-inactivated fetal bovine serum. Cells were maintained at 37 °C in a humidified 5% CO2 atmosphere. Differentiation experiments were performed in a 12-well multiwell in transwell inserts (PET membrane, 0.4 µm pore size, 0.30 cm^2 surface area), plating Caco-2 at 2.6 × 10^5 cells/cm^2 for 21 days in complete medium, changed every other day.
(§3) The integrity of the monolayers was evaluated by means of the transepithelial electrical resistance (TEER) measurement using an EVOM2 epithelial voltohmmeter (World Precision Instruments, Sarasota, FL, USA). […] For the permeation assays, only intact monolayers with TEER higher than 300 Ω × cm^2 were used. In brief, PET membranes were washed for 15–20 min at 37 °C with pre-warmed Hank’s balanced salt solution (HBSS) buffered with 25 mM HEPES and NaHCO3 (0.35 g/L) to adjust pH at 7.4, or with 10 mM methanesulfonic acid to adjust pH at 6.5. HBSS was added both to the apical (0.3 mL) and to the basolateral (0.9 mL) transwell compartments, as previously described [22].
(§4) For transport experiments, donor solution containing PG1 peptide was added to the apical compartment. […]
(§5) The apparent permeability coefficient (Papp) was calculated according to the Equation (1). The donor concentration was recalculated by subtracting the cumulative amount transported to the receiver chamber for each time interval:(1) CD(ti)=CD(ti−1)−CRti−f×CRti−1×VR/VD CD (ti) and CR (ti) (μM): donor and receiver chamber concentrations calculated at each sample occasion (i) from the donor and receiver concentrations at the previous occasion CD (ti−1) and CR (ti−1), respectively; f = 1 − VS/VR: sample replacement dilution factor; VS (cm^3): sample volume; VR (cm^3): receiver chamber volume; VD (cm^3): donor chamber volume.

Caco-2 cell monolayers [5] = test: Caco-2 cell monolayers permeation experiments; assay type: in vitro ADME, human
Protocol: as §2, §3, §4, §5

Caco-2 cell monolayers [6] = test: Caco-2 monolayer integrity (zonulin-1 immunofluorescence) and cell vitality; assay type: cell-based, human; details: PG1 25 μM, 3 h; zonulin-1 expression and cell vitality (crystal violet); Figure S2
Protocol: To evaluate the effect of PG1 peptide on colorectal adenocarcinoma (Caco-2) cells, the cells were plated in 48-well plates at a density of 36 × 10^3 cells/well. After 24 h, the Hanks’ Balanced Salt solution containing PG1 peptide at the indicated concentrations was added to the wells. The cells were examined after 3 h through microscope analysis. Finally, cells’ viability was assessed by the use of Crystal Violet Staining Solution.
All experiments were performed in triplicate, and the relative cell viability was expressed as a percentage in comparison with the untreated control cells.
Integrity of monolayers was evaluated at the end of transport experiments fixing the PET membranes with 4% paraformaldehyde (PFA) for 15 min after a wash with PBS. Membranes were then incubated with blocking solution (0.1% Triton, 1% BSA, 0.02% sodium azide, 50 mM ammonium chloride) for 20 min at room temperature in the dark, followed by incubation with anti-zonulin 1 antibody (#402200, Invitrogen, Thermo Fisher Scientific, Waltham, MA, USA) at 2 μg mL^−1 (RT, 2 h). […] Slides were examined under a Nikon fluorescence inverted microscope (Nikon Instruments Europe, Firenze, Italy) and analyzed as described.
Figure S2. (A) Fluorescence micrograph of the Caco-2 cell monolayers. […]
Original magnification 200X. […] Results are expressed as mean (± SD), and are representative of three independent experiments. […]

[7] = Chemical stability in simulated enteric lumen; assay type: physicochemical; details: 5 µM peptide, 10 mM HCOONH4 pH 7.5, 37 °C, 3 h, mass spectrometry
Protocol: In order to determine pharmacokinetic properties of a synthetic peptide, we have evaluated its chemical stability during in vitro simulated GI digestion. In detail, we have recreated the enteric lumen by alkalinization at pH = 7.5 with 10 mM HCOONH4 buffer.
as §1

Compound	enzymatic stability (hydrolysis) [1]	level at time molar [2] [nM]	metabolised at 1 h, 10 µM [3] [%]	efflux ratio at 180 min [4]	dependence of transmembrane uptake on proton gradient (Caco-2 cell monolayers [5]; Caco-2 monolayers, HBSS pH 7.4 or pH 6.5)	Caco-2 cell monolayers integrity (Caco-2 cell monolayers [6])	chemical stability [7]	apparent permeability coefficient (Papp) of monolayer control (Caco-2 cell monolayers [5]; Caco-2 monolayers 21 days, transwell, HBSS, LC-MS/MS (SRM), integrity/reference marker)
CSCC[C@H](NC(=O)[C@@H]1CCCN1C(=O)[C@H](CCC(=O)O)NC(=O)[C@H](CCCCN)NC(=O)[C@@H](N)CCC(N)=O)C(=O)O [PG1, Gln-Lys-Glu-Pro-Met] (H-QKEPM-OH)	not hydrolysed	~0.017	~13.2	< 1	independent of the proton gradient	preserved	high peptide stability for up to 3 h	
CC(C)NCC(O)COc1cccc2ccccc12 (centres unmarked) [propranolol, reference compound]								8.05 ± 0.16 × 10^−5 cm/s
